Key:
Type in all cases: functional
SK-MEL-2 [1] = test: Cytotoxicity against human SK-MEL-2 cells after 48 hrs by SRB assay; conditions: SK-MEL-2, 48 h
A498 = test: Cytotoxicity against human A498 cells after 48 hrs by SRB assay; conditions: A498, 48 h; for CC50: read-out: LC50 (the source's name)
[2] = Cytotoxicity against human SNB75 cells after 48 hrs by SRB assay; conditions: SNB-75, 48 h; for CC50: read-out: LC50 (the source's name)
SK-MEL-28 = test: Cytotoxicity against human SK-MEL-28 cells after 48 hrs by SRB assay; conditions: SK-MEL-28, 48 h
SK-MEL-5 = test: Cytotoxicity against human SK-MEL-5 cells after 48 hrs by SRB assay; conditions: SK-MEL-5, 48 h
[3] = Cytotoxicity against human OVCAR3 cells after 48 hrs by SRB assay; conditions: OVCAR-3, 48 h
NCI-H522 = test: Cytotoxicity against human NCI-H522 cells after 48 hrs by SRB assay; conditions: NCI-H522, 48 h
SK-MEL-2 [4] = test: Cytotoxicity against human SK-MEL-2 cells assessed as growth level at 10 uM after 48 hrs by SRB assay
T47D = test: Cytotoxicity against human T47D cells after 48 hrs by SRB assay
[5] = Cytotoxicity against human RPMI8226 cells after 48 hrs by SRB assay; conditions: RPMI-8226, 48 h
[6] = Cytotoxicity against human NCI-ADR-RES cells after 48 hrs by SRB assay
MDA-MB-468 = test: Cytotoxicity against human MDA-MB-468 cells after 48 hrs by SRB assay; conditions: MDA-MB-468, 48 h
A549 = test: Cytotoxicity against human A549 cells after 48 hrs by SRB assay; conditions: A549, 48 h
[7] = Cytotoxicity against human OVCAR4 cells after 48 hrs by SRB assay; conditions: OVCAR-4, 48 h; for CC50: read-out: LC50 (the source's name)
NCI-H322M = test: Cytotoxicity against human NCI-H322M cells after 48 hrs by SRB assay
[8] = Cytotoxicity against human UACC62 cells after 48 hrs by SRB assay; conditions: UACC-62, 48 h
[9] = Cytotoxicity against human HOP92 cells after 48 hrs by SRB assay; conditions: HOP-92, 48 h
NCI-H226 = test: Cytotoxicity against human NCI-H226 cells after 48 hrs by SRB assay; conditions: NCI-H226, 48 h
[10] = Cytotoxicity against human TK10 cells after 48 hrs by SRB assay; conditions: TK-10, 48 h
[11] = Cytotoxicity against human SNB19 cells after 48 hrs by SRB assay; conditions: SNB-19, 48 h
[12] = Cytotoxicity against human RXF393 cells after 48 hrs by SRB assay; conditions: RXF 393, 48 h
[13] = Cytotoxicity against human SF268 cells after 48 hrs by SRB assay; conditions: SF-268, 48 h
MDA-MB-435 = test: Cytotoxicity against human MDA-MB-435 cells after 48 hrs by SRB assay; conditions: MDA-MB-435, 48 h
[14] = Cytotoxicity against human BT549 cells after 48 hrs by SRB assay; conditions: BT-549, 48 h; for CC50: read-out: LC50 (the source's name)
[15] = Cytotoxicity against human UO31 cells after 48 hrs by SRB assay; conditions: UO-31, 48 h
[16] = Cytotoxicity against human HCT116 cells after 48 hrs by SRB assay; conditions: HCT-116, 48 h
[17] = Cytotoxicity against human COLO205 cells after 48 hrs by SRB assay; conditions: COLO 205, 48 h
[18] = Cytotoxicity against human LOXIMVI cells after 48 hrs by SRB assay; conditions: LOX IMVI
[19] = Cytotoxicity against human UACC257 cells after 48 hrs by SRB assay; conditions: UACC-257, 48 h
[20] = Cytotoxicity against human Hs578T cells after 48 hrs by SRB assay; conditions: Hs-578T
[21] = Cytotoxicity against human HOP62 cells after 48 hrs by SRB assay; conditions: HOP-62, 48 h
HT-29 = test: Cytotoxicity against human HT-29 cells after 48 hrs by SRB assay; conditions: HT-29, 48 h
SR = test: Cytotoxicity against human SR cells after 48 hrs by SRB assay; conditions: for CC50: read-out: LC50 (the source's name)

Structure (SMILES): C=C1CC[C@@H]2[C@](C)(COC(C)=O)[C@H](OC(C)=O)CC[C@@]2(C)[C@@H]1CC(Nc1ccc(S(=O)(=O)NC(C)=O)cc1)C1=CCOC1=O (mixture of isomers)
- GI50 (SK-MEL-2 [1]): 8.68 µM
- LC50 (concentration causing 50% net cell kill) (SK-MEL-2 [1]): 42.1 µM
- TGI (SK-MEL-2 [1]): 19.1 µM
- GI50 (A498): 10.3 µM
- TGI (A498): 20.1 µM
- CC50 (A498): 39.3 µM
- GI50 [2]: 3.08 µM
- TGI [2]: 12.7 µM
- CC50 [2]: 30.9 µM
- GI50 (SK-MEL-28): 3.69 µM
- LC50 (lethal concentration 50%) (SK-MEL-28): 34.2 µM
- TGI (SK-MEL-28): 13.2 µM
- GI50 (SK-MEL-5): 3.22 µM
- LC50 (concentration killing 50% of cells) (SK-MEL-5): 30.7 µM
- TGI (SK-MEL-5): 11.5 µM
- GI50 [3]: 1.49 µM
- LC50 (concentration killing 50% of cells) [3]: 6.13 µM
- TGI [3]: 3.02 µM
- GI50 (NCI-H522): 1.44 µM
- LC50 (NCI-H522): 24.1 µM
- TGI (NCI-H522): 4.42 µM
- Activity (SK-MEL-2 [4]): -7.41%
- GI50 (T47D): 2.46 µM
- LC50 (concentration killing 50% of cells) (T47D): > 75 µM
- TGI (T47D): 12 µM
- GI50 [5]: 1.84 µM
- LC50 [5]: > 75 µM
- TGI [5]: 6.53 µM
- GI50 [6]: 2.51 µM
- LC50 [6]: > 75 µM
- TGI [6]: 9.14 µM
- GI50 (MDA-MB-468): 1.53 µM
- LC50 (MDA-MB-468): 6.39 µM
- TGI (MDA-MB-468): 3.13 µM
- GI50 (A549): 8.41 µM
- LC50 (A549): 40 µM
- TGI (A549): 18.3 µM
- GI50 [7]: 4.14 µM
- TGI [7]: 13.7 µM
- CC50 [7]: 33.7 µM
- GI50 (NCI-H322M): 10.3 µM
- LC50 (NCI-H322M): 40.1 µM
- TGI (NCI-H322M): 20.3 µM
- GI50 [8]: 2.59 µM
- LC50 [8]: 32 µM
- TGI [8]: 10.8 µM
- GI50 [9]: 6.5 µM
- LC50 [9]: 35.5 µM
- TGI [9]: 15.9 µM
- GI50 (NCI-H226): 1.92 µM
- LC50 (NCI-H226): > 75 µM
- TGI (NCI-H226): 4.62 µM
- GI50 [10]: 8.02 µM
- LC50 [10]: 35.6 µM
- TGI [10]: 16.9 µM
- GI50 [11]: 8.19 µM
- LC50 (concentration killing 50% of cells) [11]: 43.7 µM
- TGI [11]: 18.9 µM
- GI50 [12]: 1.96 µM
- LC50 (concentration causing 50% net cell kill) [12]: 18.8 µM
- TGI [12]: 4.69 µM
- GI50 [13]: 8.78 µM
- LC50 [13]: 47.9 µM
- TGI [13]: 20.5 µM
- GI50 (MDA-MB-435): 2.79 µM
- LC50 (50% lethal concentration) (MDA-MB-435): 30.6 µM
- TGI (MDA-MB-435): 10.6 µM
- GI50 [14]: 2.32 µM
- TGI [14]: 7.93 µM
- CC50 [14]: 25.1 µM
- GI50 [15]: 3.71 µM
- LC50 (concentration killing 50% of cells) [15]: 31.7 µM
- TGI [15]: 13.2 µM
- GI50 [16]: 1.67 µM
- LC50 (concentration killing 50% of cells) [16]: 12.3 µM
- TGI [16]: 3.66 µM
- GI50 [17]: 1.81 µM
- LC50 [17]: 20 µM
- TGI [17]: 4.82 µM
- GI50 [18]: 1.25 µM
- LC50 [18]: 4.67 µM
- TGI [18]: 2.42 µM
- GI50 [19]: 6.83 µM
- LC50 (concentration killing 50% of cells) [19]: 35.6 µM
- TGI [19]: 16 µM
- GI50 [20]: 8.45 µM
- LC50 (concentration killing 50% of cells) [20]: > 75 µM
- TGI [20]: 38.8 µM
- GI50 [21]: 10.8 µM
- LC50 [21]: 41.1 µM
- TGI [21]: 21.1 µM
- GI50 (HT-29): 1.57 µM
- LC50 (HT-29): 17.9 µM
- TGI (HT-29): 3.55 µM
- GI50 (SR): 0.99 µM
- TGI (SR): 18.1 µM
- CC50 (SR): > 75 µM

Structure (SMILES): C=C1CC[C@@H]2[C@](C)(COC(C)=O)[C@H](OC(C)=O)CC[C@@]2(C)[C@@H]1CC(Sc1ccccc1)C1=CCOC1=O (mixture of isomers)
- GI50 (SK-MEL-2 [1]): 2.25 µM
- LC50 (concentration causing 50% net cell kill) (SK-MEL-2 [1]): 9.36 µM
- TGI (SK-MEL-2 [1]): 4.59 µM
- GI50 (A498): 2.3 µM
- TGI (A498): 14 µM
- CC50 (A498): 59.2 µM
- GI50 [2]: 1.3 µM
- TGI [2]: 2.9 µM
- CC50 [2]: 6.47 µM
- GI50 (SK-MEL-28): 1.62 µM
- LC50 (lethal concentration 50%) (SK-MEL-28): 6.68 µM
- TGI (SK-MEL-28): 3.29 µM
- GI50 (SK-MEL-5): 1.42 µM
- LC50 (concentration killing 50% of cells) (SK-MEL-5): 5.6 µM
- TGI (SK-MEL-5): 2.82 µM
- GI50 [3]: 1.14 µM
- LC50 (concentration killing 50% of cells) [3]: 4.92 µM
- TGI [3]: 2.37 µM
- GI50 (NCI-H522): 1.35 µM
- LC50 (NCI-H522): 6.57 µM
- TGI (NCI-H522): 2.98 µM
- Activity (SK-MEL-2 [4]): -1.66%
- GI50 (T47D): 2.01 µM
- LC50 (concentration killing 50% of cells) (T47D): > 100 µM
- TGI (T47D): 8.32 µM
- GI50 [5]: 0.34 µM
- LC50 [5]: > 100 µM
- TGI [5]: 2.73 µM
- GI50 [6]: 2.1 µM
- LC50 [6]: > 100 µM
- TGI [6]: 11 µM
- GI50 (MDA-MB-468): 1.41 µM
- LC50 (MDA-MB-468): 7.53 µM
- TGI (MDA-MB-468): 3.26 µM
- GI50 (A549): 2.73 µM
- LC50 (A549): > 100 µM
- TGI (A549): 7.77 µM
- GI50 [7]: 1.36 µM
- TGI [7]: 3.11 µM
- CC50 [7]: 7.12 µM
- GI50 (NCI-H322M): 2.93 µM
- LC50 (NCI-H322M): > 100 µM
- TGI (NCI-H322M): 10.4 µM
- GI50 [8]: 1.3 µM
- LC50 [8]: 8.07 µM
- TGI [8]: 3.24 µM
- GI50 [9]: 2.71 µM
- LC50 [9]: > 100 µM
- TGI [9]: 8.71 µM
- GI50 (NCI-H226): 2.3 µM
- LC50 (NCI-H226): 39.4 µM
- TGI (NCI-H226): 5.98 µM
- GI50 [10]: 2.83 µM
- LC50 [10]: 13.4 µM
- TGI [10]: 5.54 µM
- GI50 [11]: 1.78 µM
- LC50 (concentration killing 50% of cells) [11]: 7.97 µM
- TGI [11]: 3.77 µM
- GI50 [12]: 1.62 µM
- LC50 (concentration causing 50% net cell kill) [12]: 6.01 µM
- TGI [12]: 3.12 µM
- GI50 [13]: 1.71 µM
- LC50 [13]: 7.39 µM
- TGI [13]: 3.55 µM
- GI50 (MDA-MB-435): 1.41 µM
- LC50 (50% lethal concentration) (MDA-MB-435): 9.09 µM
- TGI (MDA-MB-435): 3.58 µM
- GI50 [14]: 1.59 µM
- TGI [14]: 3.99 µM
- CC50 [14]: > 100 µM
- GI50 [15]: 1.2 µM
- LC50 (concentration killing 50% of cells) [15]: 5.33 µM
- TGI [15]: 2.53 µM
- GI50 [16]: 0.85 µM
- LC50 (concentration killing 50% of cells) [16]: 5.03 µM
- TGI [16]: 2.18 µM
- GI50 [17]: 1.49 µM
- LC50 [17]: > 100 µM
- TGI [17]: 3.98 µM
- GI50 [18]: 0.29 µM
- LC50 [18]: 3.97 µM
- TGI [18]: 1.19 µM
- GI50 [19]: 1.91 µM
- LC50 (concentration killing 50% of cells) [19]: 7.2 µM
- TGI [19]: 3.71 µM
- GI50 [20]: 4.89 µM
- LC50 (concentration killing 50% of cells) [20]: > 100 µM
- TGI [20]: 63.3 µM
- GI50 [21]: 2.89 µM
- LC50 [21]: 14.7 µM
- TGI [21]: 5.53 µM
- GI50 (HT-29): 1.77 µM
- LC50 (HT-29): 8.03 µM
- TGI (HT-29): 3.77 µM
- GI50 (SR): 0.55 µM
- TGI (SR): 3.66 µM
- CC50 (SR): > 100 µM

Source: ChEMBL document CHEMBL3734705, “Synthesis and in vitro cytotoxicity of novel C-12 substituted-14-deoxy-andrographolide derivatives as potent anti-cancer agents” (2015)
